Experiment: In vitro human liver microsomal stability assay
Type: in vitro ADME
Conditions: human liver microsomes 0.5 mg/mL protein, NADPH 2 mM, pH 7.4, 1 μM test compound, 37 °C, 0-45 min; change relative to non-deuterated (d0) comparative compound
Procedure: In Vitro Liver Microsomal Stability Assay
Human liver microsomal stability assays were conducted at 0.5 mg per mL liver microsome protein with NADPH (2 mM, pH 7.4). Test compounds were prepared as solutions in DMSO and added to the assay mixture (1 μM, final concentration in incubation) to be incubated at 37±1° C. Reactions were initiated with the addition of cofactor and are stopped at 0, 5, 15, 30, and 45 min after cofactor addition with stop reagent (acetonitrile). After quenching, plates containing samples are vibrated for 10 min (600 rpm/min) and then centrifuged at 5594 g for 15 min. Supernatant fractions were analyzed by LC-MS/MS to determine the percent remaining and estimate the degradation half-life of the test compounds.

Row | Compound | Clearance % change over d0 | Half-life % change over d0
1 | [2H]C(NCc1ncc(C)cn1)C1(F)C([2H])([2H])C([2H])([2H])N(C(=O)c2ccc(F)c(Cl)c2)C([2H])([2H])C1([2H])[2H] (centres unmarked) [Example 13, ([1-[(3-chloro-4-fluorophenyl)carbonyl]-4-fluoro(d8)piperidin-4-yl](d)methyl)[(5-methylpyrimidin-2-yl)methyl]amine] | −0.9% | 0.9%
2 | [2H]C([2H])([2H])c1ccc(C([2H])([2H])NCC2(F)CCN(C(=O)c3ccc(F)c(Cl)c3)CC2)nc1 [Example 4, (3-chloro-4-fluorophenyl)(4-fluoro-4-((((5-(methyl-d3)pyridin-2-yl)methyl-d2)amino)methyl)piperidin-1-yl)methanone] | −5.1% | 5.4%
3 | [2H]C(NCc1ccc(C)cn1)C1(F)C([2H])([2H])C([2H])([2H])N(C(=O)c2ccc(F)c(Cl)c2)C([2H])([2H])C1([2H])[2H] (centres unmarked) [Example 7, ([1-[(3-chloro-4-fluorophenyl)carbonyl]-4-fluoro(d8)piperidin-4-yl](d)methyl)[(5-methylpyridin-2-yl)methyl]amine] | −5.8% | 6.2%
4 | Cc1ccc(CNCC2(F)CCN(C(=O)c3ccc(F)c(Cl)c3)CC2)nc1 [Example 1, (3-chloro-4-fluorophenyl)(4-fluoro-4-((((5-methylpyridin-2-yl)methyl)amino)methyl)piperidin-1-yl)methanone, reference compound] | 0% | 0%
5 | [2H]C([2H])(NCC1(F)CCN(C(=O)c2ccc(F)c(Cl)c2)CC1)c1ccc(C)cn1 [Example 5, (3-chloro-4-fluorophenyl)(4-fluoro-4-((((5-methylpyridin-2-yl)methyl-d2)amino)methyl)piperidin-1-yl)methanone] | −6.7% | 7.2%
6 | [2H]C([2H])([2H])c1ccc(C([2H])([2H])NC([2H])([2H])C2(F)CCN(C(=O)c3ccc(F)c(Cl)c3)CC2)nc1 [Example 6, (3-chloro-4-fluorophenyl)(4-fluoro-4-((((5-(methyl-d3)pyridin-2-yl)methyl-d2)amino)methyl-d2)piperidin-1-yl)methanone] | −9.1% | 10.0%
7 | Cc1cnc(CNCC2(F)CCN(C(=O)c3ccc(F)c(Cl)c3)CC2)nc1 [Example 8, (3-chloro-4-fluorophenyl)(4-fluoro-4-((((5-methylpyrimidin-2-yl)methyl)amino)methyl)piperidin-1-yl)methanone, reference compound] | 0% | 0%
8 | [2H]C([2H])([2H])c1ccc(CNCC2(F)CCN(C(=O)c3ccc(F)c(Cl)c3)CC2)nc1 [Example 3, (3-chloro-4-fluorophenyl)(4-fluoro-4-((((5-(methyl-d3)pyridin-2-yl)methyl)amino)methyl)piperidin-1-yl)methanone] | −5. % | 5.6%
9 | [2H]C([2H])([2H])c1cnc(C([2H])([2H])NCC2(F)CCN(C(=O)c3ccc(F)c(Cl)c3)CC2)nc1 [Example 11, (3-chloro-4-fluorophenyl)(4-fluoro-4-((((5-(methyl-d3)pyrimidin-2-yl)methyl-d2)amino)methyl)piperidin-1-yl)methanone] | 5.5% | −5.2%
10 | [2H]C([2H])(NCc1ccc(C)cn1)C1(F)CCN(C(=O)c2ccc(F)c(Cl)c2)CC1 [Example 2, (3-chloro-4-fluorophenyl)(4-fluoro-4-((((5-methylpyridin-2-yl)methyl)amino)methyl-d2)piperidin-1-yl)methanone] | −7.5% | 8.4%
11 | [2H]C([2H])(NCC1(F)CCN(C(=O)c2ccc(F)c(Cl)c2)CC1)c1ncc(C)cn1 [Example 9, (3-chloro-4-fluorophenyl)(4-fluoro-4-((((5-methylpyrimidin-2-yl)methyl-d2)amino)methyl)piperidin-1-yl)methanone] | 3.7% | −3.5%
12 | [2H]C([2H])(NCc1ncc(C)cn1)C1(F)CCN(C(=O)c2ccc(F)c(Cl)c2)CC1 [Example 12, (3-chloro-4-fluorophenyl)(4-fluoro-4-((((5-methylpyrimidin-2-yl)methyl)amino)methyl-d2)piperidin-1-yl)methanone] | 2.1% | −2.1%
13 | [2H]C([2H])([2H])c1cnc(CNCC2(F)CCN(C(=O)c3ccc(F)c(Cl)c3)CC2)nc1 [Example 10, (3-chloro-4-fluorophenyl)(4-fluoro-4-((((5-(methyl-d3)pyrimidin-2-yl)methyl)amino)methyl)piperidin-1-yl)methanone] | 8.4% | −7.7%

Source: US10626105B2, “Deuterium-substituted pyridin- and pyrimidin-2-yl-methylamine compounds” (Auspex Pharmaceuticals, Inc., priority 2016, dated 2020)
